Experimental data: ChEMBL document CHEMBL1201862, “PubChem BioAssay data set” (2004)
The source made the active and inactive calls.

Key:
[1] = system: INS1; assay: INS-1E survival protection against cytokine death – cell-based, luminescence, retest, dose response (AID 449756); format: functional; conditions: Rattus norvegicus;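 note: cell death triggered by IL-1 beta plus TNF-alpha plus IFN-gamma mixture; protective hits raise ATP signal compared with cytokine alone wells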
[2] = target: T1, COUP transcription factor 2 (Homo sapiens, UniProt P24468); assay: Luminescence-based cell-based high throughput dose response assay to identify inhibitors of COUP-TFII (NR2F2).; format: functional;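 note: HEK293 cells transiently cotransfected with COUP-TFII expression vector and reporter; luciferase reporter luminescence driven by COUP-TFII from the pX2-168 reporter plasmid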
T1 sequence (P24468 whole entry): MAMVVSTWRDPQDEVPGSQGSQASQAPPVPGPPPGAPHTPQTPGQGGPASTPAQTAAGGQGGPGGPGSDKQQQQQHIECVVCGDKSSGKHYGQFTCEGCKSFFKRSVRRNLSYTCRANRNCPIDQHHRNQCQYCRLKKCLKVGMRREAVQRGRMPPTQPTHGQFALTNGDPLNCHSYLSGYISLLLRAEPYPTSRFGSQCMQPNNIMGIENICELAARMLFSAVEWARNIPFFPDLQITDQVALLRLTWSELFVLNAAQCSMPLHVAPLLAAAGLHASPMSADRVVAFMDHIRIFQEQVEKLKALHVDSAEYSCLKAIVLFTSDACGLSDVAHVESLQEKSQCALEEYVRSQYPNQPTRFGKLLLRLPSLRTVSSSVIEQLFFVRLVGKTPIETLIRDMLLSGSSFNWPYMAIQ

[3] = viability loss in THP-1 monocytes – THP-1 cells, cytotoxicity control for Vif-APOBEC3G degradation inhibitor project, dose response (AID 1117359); format: functional; conditions: THP-1
[4] = target: Glutathione-S-transferase (Schistosoma japonicum, UniProt Q26513); assay: GST-antibody interaction or FRET quenching – biochemical, TR-FRET, artefact control for Vif-APOBEC3G degradation inhibitor project, dose response (AID 1117362); format: functional
[5] = system: HEK293; assay: EBV LMP1 TES2 canonical NF-kB signalling blockers – cell-based, HEK293, luciferase, cherry-pick, dose response (AID 588343); format: functional, Homo sapiens; conditions: Homo sapiens, HEK293
[6] = target: Transthyretin (Homo sapiens, UniProt P02766); assay: Luminescence-based cell-based high throughput dose response assay to identify activators of Transthyretin (TTR) transcription.; format: functional
[7] = luciferase reporter signal suppression in cells – H4 neuroglioma cells, luminescence, dose response (AID 1990); format: functional, cell-based
[8] = luciferase reporter signal reduction – luminescence, H4-C neuroglioblastoma cells, dose response (AID 2458); format: functional, cell-based;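 note: H4 neuroglioblastoma cells stably carrying a luciferase reporter gene fusion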
[9] = cells; format: functional, cell-based
[10] = Luminescence Cell-Based Dose Response HTS to Identify Inhibitors of 5'UTR Stem-Loop Driven Prion Protein mRNA Translation in H4 Neuroglioblastoma Cells. [Related pubchem assays: 1827 (Project Summary), 1813 (Primary HTS)]; format: functional
[11] = alpha-synuclein stem-loop luciferase translation blockers – H4 neuroglioma cells, luminescence, confirmation (AID 1988); format: functional, cell-based
[12] = Luminescence-based counterscreen assay for KLF5 inhibitors: dose response cell-based high throughput screening assay to identify cytotoxic compounds using the IEC-6 intestinal epithelial cell line. [Related pubchem assays: 1700 (Primary screen.), 1834 (Confirmation screen.), 1858 (Summary AID.), 1905 (Counterscreen.)]; format: functional
[13] = alpha-synuclein stem-loop translation blockers – luminescence, H4 neuroglioblastoma cells, dose confirmation, confirmation (AID 2454); format: functional, cell-based;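 note: H4 neuroglioblastoma cells carrying an alpha-synuclein 5'UTR luciferase reporter; potency for inhibition of the luciferase signal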
[14] = HEK-293T cell viability reduction – luminescence, B-cell screen hits, cytotoxicity control for BCR NF-kB inhibitor project, dose response (AID 489021); format: functional, cell-based;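 note: HEK-293T cells carrying an NF-kB luciferase reporter; cells exposed to compound for about 14 hours before viability readout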
[15] = system: H4; assay: inhibitors of control reporter signal in H4 cells – cell-based, plate reader, dry powder samples, counter-screen for prion reporter project, dose response (AID 540255); format: functional; conditions: Homo sapiens
[16] = system: H4; assay: Inhibitors of Prion Protein 5' UTR mRNA Measured in Cell-Based System Using Plate Reader - 2078-01_Inhibitor_Dose_DryPowder_Activity. [Related pubchem assays (depositor defined):AID488894]; format: functional; conditions: Homo sapiens
[17] = reduction of Shn3 3'UTR-driven luciferase in osteoblasts – cell-based, Clone20 osteoblasts, firefly luciferase, cherry-picked, dose response (AID 624132); format: functional;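 note: firefly luciferase luminescence from reporter carrying the Shn3 3'UTR in osteoblasts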
[18] = target: Paired box protein Pax-8 (Homo sapiens, UniProt Q06710); assay: PAX8 transcriptional activity inhibition in RMG-I – RMG-I cells, luciferase, cherry-pick, dose response (AID 687027); format: functional, cell-based;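 note: luciferase reporter driven by Pax8 target thyroperoxidase promoter measured by SteadyGlo luminescence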
[19] = inhibitors acting on PAX2 in cells – cell-based, plate reader, dry powder samples, selectivity assay for PAX8 inhibitor project, dose response (AID 743048); format: functional;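 note: HEK293 cells carrying a WT1 promoter luciferase reporter driven by expressed Pax2; potency is for inhibition of Pax2 driven reporter signal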
[20] = COV362 cell viability loss – plate reader, dry powder, SA12, cytotoxicity control for PAX8 inhibitor project, dose response (AID 743144); format: functional, cell-based
[21] = Shn3 3'UTR reporter signal decrease – cell-based, Clone20 osteoblasts, firefly luciferase, cherry-pick, set 2, Schnurri-3 inhibitor project, dose response (AID 720490); format: functional;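 note: actives lower the luminescence signal as inhibitors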
[22] = PAX5 cellular inhibition readout – cell-based, plate reader, dry powder samples, selectivity assay for PAX8 inhibitor project, dose response (AID 743047); format: functional;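 note: HEK293 cells carrying a Pax5 driven CD19 promoter luciferase reporter; potency of inhibitors that lower reporter luminescence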
[23] = PAX8-dependent cell viability loss – plate reader, dry powder, dose response (AID 743049); format: functional, cell-based
[24] = Luminescence-based cell-based high throughput dose response assay to identify activators of the DAF-12 from the parasite S. stercoralis (ssDAF-12).; format: functional
[25] = target: T2, Oxysterols receptor LXR-beta (Homo sapiens, UniProt P55055); assay: LXR agonists, Gal4 luciferase reporter, dose response, counter-screen for ssDAF-12 agonist project, cell-based, luminescence, HEK293, S. stercoralis campaign (AID 720737); format: functional; conditions: read-out: IC50 (the source's name)
T2 sequence (P55055 whole entry): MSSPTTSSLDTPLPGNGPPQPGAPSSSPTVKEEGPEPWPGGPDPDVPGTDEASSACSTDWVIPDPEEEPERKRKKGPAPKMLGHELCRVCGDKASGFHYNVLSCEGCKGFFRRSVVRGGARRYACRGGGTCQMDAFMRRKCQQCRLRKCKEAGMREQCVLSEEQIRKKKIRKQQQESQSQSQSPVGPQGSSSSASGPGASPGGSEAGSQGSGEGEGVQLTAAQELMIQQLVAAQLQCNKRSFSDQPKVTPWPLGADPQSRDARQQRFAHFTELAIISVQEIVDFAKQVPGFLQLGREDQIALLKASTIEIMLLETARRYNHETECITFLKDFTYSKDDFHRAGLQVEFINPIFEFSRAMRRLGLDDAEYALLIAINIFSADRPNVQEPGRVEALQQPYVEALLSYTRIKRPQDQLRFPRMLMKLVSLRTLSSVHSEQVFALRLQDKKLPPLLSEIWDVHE

[26] = A2780 cell killing – plate reader, dry powder samples, cytotoxicity control, dose response (AID 743046); format: functional, cell-based
[27] = OVCAR-3 cell viability loss – plate reader, dry powder samples, PAX8 inhibitor project, dose response (AID 743044); format: functional, cell-based
[28] = OVCAR8 cell viability loss – plate reader, dry powder samples, PAX8 project, dose response (AID 743197); format: functional, cell-based; conditions: OVCAR-8
[29] = toxicity toward immortalized ovarian surface epithelium – cell-based, plate reader, dry powder samples, cytotoxicity control for PAX8 inhibitor project, dose response (AID 743045); format: functional
[30] = general cell-killing toxicity readout – plate reader, dry powder samples, cytotoxicity control for PAX8 inhibitor project, dose response (AID 743021); format: functional, cell-based
[31] = T. cruzi growth inhibition in host cells, dose response, cell-based, plate reader, dry powder, set 2 (AID 652275); format: functional
[32] = Trypanosoma cruzi replication inhibitors in host cells – cell-based, plate reader, dry powder samples, dose response (AID 651845); format: functional
[33] = anti-trypanosomal activity in BESM host cells – imaging, CA-I/72 strain, bovine embryo skeletal muscle, dry powder, dose response (AID 651885); format: functional, cell-based
[34] = viability loss in A549 lung cells – cell-based, 24 h, CellTiter-Glo luminescence, cherry-picks, cytotoxicity control, dose response (AID 1053115); format: functional; conditions: A549, 24 h
[35] = lung carcinoma cell viability loss – CellTiter-Glo luminescence, dry powder, set 17, dose response (AID 1117284); format: functional, cell-based; conditions: A549

Paired box protein Pax-8, sequence (Q06710 whole entry): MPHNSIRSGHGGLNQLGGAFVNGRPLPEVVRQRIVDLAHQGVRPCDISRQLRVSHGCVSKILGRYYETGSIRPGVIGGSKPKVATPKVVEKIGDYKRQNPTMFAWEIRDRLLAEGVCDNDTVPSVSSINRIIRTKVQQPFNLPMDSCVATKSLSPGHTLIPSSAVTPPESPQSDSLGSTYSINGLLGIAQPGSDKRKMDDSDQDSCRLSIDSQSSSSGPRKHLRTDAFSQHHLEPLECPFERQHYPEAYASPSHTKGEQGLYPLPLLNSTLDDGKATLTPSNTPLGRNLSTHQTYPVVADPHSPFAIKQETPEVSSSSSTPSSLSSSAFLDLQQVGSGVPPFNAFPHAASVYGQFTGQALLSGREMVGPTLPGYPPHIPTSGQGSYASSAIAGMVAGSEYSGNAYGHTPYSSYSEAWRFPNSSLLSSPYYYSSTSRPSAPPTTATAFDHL
Glutathione-S-transferase, sequence (Q26513 whole entry): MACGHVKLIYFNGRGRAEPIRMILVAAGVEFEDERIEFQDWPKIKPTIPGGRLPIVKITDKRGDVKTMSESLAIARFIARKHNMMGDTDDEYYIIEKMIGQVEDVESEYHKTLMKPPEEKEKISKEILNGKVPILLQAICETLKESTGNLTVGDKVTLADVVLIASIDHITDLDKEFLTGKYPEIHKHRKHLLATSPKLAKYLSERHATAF

Cc1cccc2cc(-c3ccccc3)c(-c3ccccc3)c[n+]12
AC50 [1]: 4.26 µM (active) | IC50 [2]: 8.22 µM (active) | CC50 [3]: 12.2 µM (active) | IC50 [4]: 18.7 µM (active)

COc1ccc2cc3c(N)nn(C(=O)c4ccccc4[N+](=O)[O-])c3nc2c1
AC50 [5]: 2.75 µM (active) | EC50 [6]: > 167 µM (inactive)

O=C(CN1C(=O)c2ccccc2S1(=O)=O)c1ccc(Cl)cc1Cl
EC50 [7]: 0.31 µM (active) | EC50 [8]: 0.595 µM (active) | EC50 [9]: 0.794 µM (active) | EC50 [10]: < 0.1 µM (active) | EC50 [11]: < 0.1 µM (active) | IC50 [12]: > 39.8 µM (not active) | EC50 [13]: 0.774 µM (active) | IC50 [14]: > 80 µM (inactive) | AC50 [15]: 0.456 µM (active) | AC50 [16]: 0.168 µM (active) | AC50 [17]: 3.53 µM (active) | AC50 [18]: 2.93 µM (active) | AC50 [19]: 1.18 µM (active) | AC50 [20]: 93.5 µM (active) | AC50 [21]: 5.38 µM (active) | AC50 [22]: 1.37 µM (active) | AC50 [23]: 88.1 µM (active)

O=C(CCN1C(=O)C2C3CCC(C3)C2C1=O)Nc1ccccc1C(F)(F)F (centres undefined)
IC50 [24]: > 67.6 µM (inactive) | EC50 [25]: > 67.6 µM (inactive)

Cc1cccc(S(=O)(=O)N2C[C@@H](O)COC[C@@H]3O[C@@H](CC(=O)Nc4ccc(-c5ccccc5)cc4)CC[C@H]32)c1
AC50 [18]: 10.7 µM (active) | AC50 [26]: 23.2 µM (active) | AC50 [27]: 43.4 µM (active) | AC50 [28]: 53.1 µM (active)

COc1ccccc1C#Cc1ccc([C@H]2[C@H](C#N)N(C(=O)C3CCC3)[C@H]2CO)cc1
AC50 [18]: 5.55 µM (active) | AC50 [29]: 56.5 µM (active) | AC50 [27]: 12.6 µM (active) | AC50 [30]: 32.8 µM (active) | AC50 [28]: 23.4 µM (active)

C[C@@H]1CN(C)C(=O)c2cccc(NC(=O)c3ccncc3)c2O[C@H]1CN(C)Cc1ccc(Oc2ccccc2)cc1
AC50 [31]: 0.00506 µM (active) | AC50 [32]: 0.0381 µM (active) | IC50 [33]: 10 µM (inconclusive)

C[C@H](CO)N1C[C@H](C)[C@@H](CN(C)Cc2ccc(-c3ccccc3)cc2)Oc2cc(C#C[C@@H](C)O)ccc2S1(=O)=O
AC50 [34]: 52.6 µM (active) | AC50 [35]: 42.5 µM (active)
